Experimental data as given in patent publication US20070112068A1, “Nitrile compound and its use in pest control” (priority 2003, published 2007).

Tests used:
Assay type in all cases: in vivo
[1] = tested on: Blattalla germanica; experiment: Experimental Example 3: treated filter paper with sucrose bait, German cockroach; settings: 500 ppm, 0.7 ml on filter paper; two male imagoes; after 6 days
Protocol: A filter paper having a diameter of 5.5 cm was spread on the bottom of a polyethylene cup having a diameter of 5.5 cm and 0.7 ml of the experimental pesticidal solution was added dropwise onto the filter paper. As a bait 30 mg of sucrose was uniformly placed on the filter paper. Into the polyethylene cup, two male Blattalla germanica imagoes were released and the cup was sealed with a lid. After 6 days, the number of surviving Blattalla germanica was examined and the death rate of the pest was calculated.

[2] = tested on: Blattella germanica; experiment: Experimental Example 14: topical application, Blattella germanica; settings: 1 μl of 1% (w/v) acetone solution onto sternum of thorax of female imagoes; after 7 days
Protocol: 1% (w/v) solutions of the present compounds (4), (20), (22), (23), (24), (29), (30), (31), (35), (36), (37), (38), (46), (53), (54), (56), (57), (59), (61), (66), (67), (68), (69), (70), (71), (79), (81), (83), (84), (89), and (90) in acetone were prepared. Onto the sternum of the thorax of female imagoes of Blattella germanica, 1 μl of the acetone solution was added dropwise. The imagoes were transferred to a plastic cup having a diameter of about 9 cm and a height of about 4.5 cm and left together with feed and water at 25° C. After 7 days, the number of surviving Blattella germanica was examined and the death rate of the pest was calculated. 10 imagoes of Blattella germanica were put in a cup and three replicate experiments were performed.

[3] = tested on: Blattella germanica; experiment: Experimental Example 15: treated filter paper in paper box, Blattella germanica; settings: 0.1 ml of 2.5% (w/v) acetone solution on filter paper in paper box; after 7 days
Protocol: (§1) 2.5% (w/v) solutions of the present compounds (23), (24) and (31) in acetone were prepared. 0.1 ml of the solution was added dropwise onto a filter paper with 2 cm×2 cm and then air-dried. This filter paper was attached to the center of the inside bottom of a paper box having 10 cm (width)×2 cm (height)×7 cm (depth) with a two-sided tape. One hole of 5 mm in width and 2 cm in height was made through one side of this box. This box was placed in a plastic vat with 25 cm×20 cm×8 cm in height and therein 10 females and 10 males of Blattella germanica were released. The inside wall of the plastic vat used in this experiment was coated with talc for preventing the escape of cockroaches. The plastic vat contained feed and water and left at 25° C. After 7 days, Blattella germanica was observed and the death rate of the pest was calculated. This experiment was repeated two times.

[4] = tested on: Periplaneta fuliginosa; experiment: Experimental Example 16: treated filter paper in paper box, Periplaneta fuliginosa; settings: 0.1 ml of 5% (w/v) acetone solution on filter paper in paper box; after 7 days
Protocol: as §1, with “5% (w/v)” for “2.5% (w/v)”, “of 2” for “of 5”, “therein 3” for “therein 10”, “and 3” for “and 10”, “of Periplaneta fuliginosa” for “of Blattella germanica”, “days, Periplaneta fuliginosa” for “days, Blattella germanica”

Measured: death rate of the pest

N#CC(C#N)(CCC(F)(F)F)CC(F)(F)C(F)(F)C(F)(F)F [(24)]
100%: all assays above
